Values of other authors as cited in patent US20160120807A1, “CELL-SURFACE DECORATION WITH ACTIVE AGENTS” (University of Louisville Research Foundation, Inc., priority 2005, published 2016).

Experiments:
NPY Y1 receptor [1] = target: T1, NPY Y1 receptor (Homo sapiens, UniProt P25929)
T1 construct: host or cells: smooth muscle cells; vessel after angioplasty
T1 sequence (P25929 1-384): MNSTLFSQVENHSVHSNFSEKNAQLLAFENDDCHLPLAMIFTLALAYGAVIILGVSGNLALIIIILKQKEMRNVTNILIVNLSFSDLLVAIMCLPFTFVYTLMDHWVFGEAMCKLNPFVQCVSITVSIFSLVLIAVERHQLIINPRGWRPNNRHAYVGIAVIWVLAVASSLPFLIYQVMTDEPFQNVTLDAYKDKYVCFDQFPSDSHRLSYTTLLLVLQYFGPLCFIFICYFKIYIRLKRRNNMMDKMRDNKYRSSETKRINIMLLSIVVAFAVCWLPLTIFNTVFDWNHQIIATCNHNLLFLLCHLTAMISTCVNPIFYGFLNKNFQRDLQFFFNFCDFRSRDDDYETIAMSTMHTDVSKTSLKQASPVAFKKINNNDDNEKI

NPY Y1 receptor [2] = target: T1, NPY Y1 receptor; remark: listed apart in the source

Structure (SMILES): N=C(N)NCCC[C@@H](NC(=O)C(c1ccccc1)c1ccccc1)C(=O)NCc1ccc(O)cc1 [BIBP3226, (R)—N2-(diphenylacetyl)-N-[(4-hydroxy-phenyl)methyl]-D-arginine-amide]
- mitogen-activated protein kinase (MAPK) activity in smooth muscle cells (NPY Y1 receptor [1]): reduces mitogen-activated protein kinase (MAPK) activity
- neointimal hyperplasia after angioplasty (NPY Y1 receptor [2]): reduces neointimal hyperplasia
